Data taken from patent US20150209379A1, “TREATMENT OF PROSTATE CANCER AND HEMATOLOGIC NEOPLASMS” (THOMAS JEFFERSON UNIVERSITY, priority 2012, published 2015).

Legend:
Assay type in all cases: cell-based
[1] = test system: K562 human chronic myeloid leukemia cells; experiment: Cell viability, MTS assay, K562 chronic myeloid leukemia cells; details: K562, 72 h, 3.1, 6.3, 12.5, 25 and 50 μM, vs control compound C5
Description: (§1) Exponentially growing K562 human chronic myeloid leukemia cells were treated with Compound 1, Compound 2 or the control compound C5 for 72 h at 3.1, 6.3. 12.5, 25 and 50 μM concentrations. The cell viability was assessed by MTS (3-(4,5-dimethylthiazolyl-2)-2,5-diphenyl-tetrazolium bromide) metabolic activity assay (CellTiter 96® AQueous Assay kit).
as §1, with “growing CWR22Rv1 prostate cancer cells,” for “growing”, “leukemia cells and imatinib-sensitive KCL22S and imatinib-resistant KCL22R” for “human”, “NBPP” for “Compound 1, Compound 2”

[2] = test system: KCL22 human chronic myeloid leukemia cells; experiment: Cell viability, MTS assay, KCL22 (imatinib-sensitive) chronic myeloid leukemia cells; details: KCL22 (KCL22S), 72 h, 3.1, 6.3, 12.5, 25 and 50 μM, vs control compound C5
Description: as §1, with “KCL22” for “K562”
as §1, with “growing CWR22Rv1 prostate cancer cells,” for “growing”, “leukemia cells and imatinib-sensitive KCL22S and imatinib-resistant KCL22R” for “human”, “NBPP” for “Compound 1, Compound 2”

[3] = target: T1, Stat5a (Homo sapiens, UniProt P42229); experiment: Stat5a transcriptional activity, beta-casein promoter luciferase reporter gene assay in PC-3 cells; set-up: expressed in transfected cells; host or cells: PC-3 human prostate cancer cells; details: 1 hour pretreatment, then 10 nM hPrl 16 hours
T1 sequence (P42229 1-794): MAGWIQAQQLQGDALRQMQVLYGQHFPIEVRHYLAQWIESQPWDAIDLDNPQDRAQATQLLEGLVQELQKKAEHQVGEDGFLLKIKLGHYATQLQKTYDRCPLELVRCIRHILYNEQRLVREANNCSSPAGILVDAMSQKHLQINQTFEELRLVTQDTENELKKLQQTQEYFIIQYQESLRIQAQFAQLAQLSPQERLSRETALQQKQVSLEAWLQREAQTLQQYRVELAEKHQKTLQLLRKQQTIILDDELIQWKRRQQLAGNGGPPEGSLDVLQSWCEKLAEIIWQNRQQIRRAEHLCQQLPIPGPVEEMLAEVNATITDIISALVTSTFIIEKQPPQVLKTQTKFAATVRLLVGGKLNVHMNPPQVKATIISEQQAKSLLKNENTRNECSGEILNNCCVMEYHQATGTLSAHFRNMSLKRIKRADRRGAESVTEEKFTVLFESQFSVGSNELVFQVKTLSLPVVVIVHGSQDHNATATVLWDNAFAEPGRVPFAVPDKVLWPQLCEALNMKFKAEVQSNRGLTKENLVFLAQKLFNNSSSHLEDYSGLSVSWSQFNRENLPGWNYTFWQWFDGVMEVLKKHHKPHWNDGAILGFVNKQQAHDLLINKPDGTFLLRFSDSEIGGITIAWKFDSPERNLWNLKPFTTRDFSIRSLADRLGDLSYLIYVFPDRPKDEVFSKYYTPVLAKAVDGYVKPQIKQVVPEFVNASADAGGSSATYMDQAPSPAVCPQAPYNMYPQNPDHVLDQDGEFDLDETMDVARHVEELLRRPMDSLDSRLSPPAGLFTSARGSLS
Description: Cells of the human prostate cell line PC-3 were plated into 96-well plate at the density of 2×10^5 per well. After 24 hours of plating, cells were transiently co-transfected using FuGENE6 (Roche) with 0.25 μg of each of pStat5a, pPrlR (prolactin receptor) plasmids, 0.5 μg of pBeta-casein-luc and 0.025 μg of pRL-TK (Renilla luciferase) plasmids as an internal control. After another 24 hours of transfection, the cells were starved in serum-free medium for 8 hours, pretreated with (2R,3R,4S,5R)-2-(6-(3,4-dihydroisoquinolin-2(1H)-yl)-9H-purin-9-yl)-5-(hydroxymethyl)tetrahydrofuran-3,4-diol (Compound 1) or (2R,3S,4R,5R)-2-(hydroxymethyl)-5-(6-(2-phenylhydrazinyl)-9H-purin-9-yl)tetrahydrofuran-3,4-diol (Compound 2), for 1 hour, and then stimulated with 10 nM human prolactin (hPrl) in the serum-free medium for additional 16 hours. The lysates were assayed for firefly and Renilla luciferase activities using the Dual-Luciferase reporter assay system (Promega). The firefly luciferase activity was normalized to the Renilla luciferase activity of the same sample, and the mean was calculated from the parallels. From the mean values of each independent run, the overall mean and its standard deviation (S.D.) were calculated.
(§2) Cells of the human prostate cell line PC-3 were plated into 96-well plate at the density of 2×10^5 per well. […] The firefly luciferase activity was normalized to the Renilla luciferase activity of the same sample, and the mean was calculated from the parallels. From the mean values of each independent run, the overall mean and its standard deviation (S.D.) were calculated.
as §2

| Structure (SMILES) | number of viable cells [1] | number of viable cells [2] | effect on transcriptional activity of Stat5a [3] |
| --- | --- | --- | --- |
| OC[C@H]1O[C@@H](n2cnc3c(N4CCc5ccccc5C4)ncnc32)[C@H](O)[C@@H]1O [Compound 1, (2R,3R,4S,5R)-2-(6-(3,4-Dihydroisoquinolin-2(1H)-yl)-9H-purin-9-yl)-5-(hydroxymethyl)tetrahydrofuran-3,4-diol] | decreased the number of viable leukemic cells compared to the control compound | decreased the number of viable leukemic cancer cells compared to the control compound | effectively block the transcriptional activity of Stat5a |
| OC[C@H]1O[C@@H](n2cnc3c(NNc4ccccc4)ncnc32)[C@H](O)[C@@H]1O [Compound 2, (2R,3S,4R,5R)-2-(hydroxymethyl)-5-(6-(2-phenylhydrazinyl)-9H-purin-9-yl)tetrahydrofuran-3,4-diol] | decreased the number of viable leukemic cells compared to the control compound | decreased the number of viable leukemic cancer cells compared to the control compound | effectively block the transcriptional activity of Stat5a |
| OC[C@H]1O[C@@H](n2cnc3c(NCc4ccccc4)ncnc32)[C@H](O)[C@@H]1O [Compound N6BA, N^6-benzyladenosine] | – | – | inhibits transcriptional activity of Stat5 |
| OC[C@H]1O[C@@H](n2ccc3c(NCc4ccccc4)ncnc32)[C@H](O)[C@@H]1O [NBPP, N-(phenylmethyl)-7-β-D-ribofuranosyl-7H-pyrrolo[2,3-d]pyrimidin-4-amine] | decreased the number of viable K562 cells | decreased the number of viable KCL22S cells | – |
